{
  "source": "patent US20210308171A1",
  "about": "“METHODS FOR COMBINATORIAL SCREENING AND USE OF THERAPEUTIC TARGETS THEREOF” (THE BROAD INSTITUTE, INC., priority 2018, published 2021)",
  "key": {"293T cells": {"system": "293T cells", "assay": "SaCas9 tiling library 6-thioguanine resistance screen", "format": "cell-based", "description": "FIG. 10—Development of SaCas9 on-target rules. (a) Representation of all SaCas9 sgRNAs tested according to group and gene. sgRNAs are grouped based on whether the target gene is assayed by 6-thioguanine resistance, cell viability, or vemurafenib resistance. Control sgRNAs are also indicated. (b) Log 2 fold change of sgRNAs relative to their starting abundance in the plasmid DNA library in cell viability and resistance experiments. That knockout of NUDTS confers 6-thioguanine resistance in 293T cells but not A375 cell is expected based on previous results^16. P-values: Kruskal-Wallis test with Dunn's multiple comparisons test for each gene relative to the set of non-targeting controls. Significance labels: ns, not significant; *P<0.05; **P<0.01; ***P<0.001; ****P<0.0001.\nApplicants designed a second tiling library with all sgRNAs with an NNGRR PAM that targeted 9 genes with known phenotypes in viability and drug resistance assays, a total of 5,327 sgRNAs, including controls (FIG. 10a). Applicants performed viability screens in three cell lines (A375, 293T, MOLM13), and screened relevant cell lines for 6-thioguanine (A375, 293T) and vemurafenib resistance (A375)."}, "[1]": {"system": "Meljuso, OVCAR8, and A549 cells", "assay": "Cell Titer Glo viability of cells transduced with single SaCas9 sgRNAs (MCL1, BCL2L1, BCL2L2 or controls) and treated with small molecule inhibitors", "format": "cell-based", "settings": "3 days; for synergy of small molecule with sgRNAs targeting MCL1 (cell viability): both sgRNAs targeting MCL1, dosed from 1 nM to 1 μM", "procedure": "(b) Validation of genetic interactions with individual gene knockout combined with small molecules. Seven days after transduction with lentivirus expressing individual sgRNAs, cells were incubated with small molecules for three days before assaying viability by Cell Titer Glo. Points represent the average and whiskers represent the maximum and minimum of two replicate wells. […] Cells were incubated with small molecules for three days before assaying viability by Cell Titer Glo (top).\n(a) As in FIG. 5b, cells were infected with individual sgRNAs and 7 days post-infection treated with small molecules over a range of doses. Cell viability was determined by Cell Titer Glo after 3 days.\nMeljuso, OVCAR8, and A549 cells were transduced with single SaCas9 sgRNAs targeting MCL1, BCL2L1, or BCL2L2, or controls. […] Cells were dosed from 1 nM to 1 μM, and cell viability assessed (FIG. 5b, FIG. 15a).\nMeljuso cells were transduced in 12-well plates, as described above, with lentivirus containing a single sgRNA targeting one of the anti-apoptotic genes (BCL2L1, BCL2L2, MCL1) or a control sgRNA either targeting CD81 or containing a run of 6 thymidines. Two days after transduction, cells were selected using puromycin at 1 μg/mL for five days. After puromycin selection, 3,000 cells were seeded into 96-well plates. Across each row of the 96-well plate, a different small molecule was added at 11 log 2-dilutions ranging from 1 μM to approximately 1 nM in duplicate for each of the cell lines. […] After 3 days in the presence of the small molecule, viability of the cell population was assayed by CellTiterGlo (Promega) according to the manufacturer's instructions."}, "[2]": {"system": "MV4-11 (AML MLL-AF4) cells", "assay": "BRD4 inhibitor dose response +/- WDR77 KO", "format": "cell-based", "text": "FIG. 36—illustrates that WDR77 KO sensitizes MV4-11 (AML MLL-AF4) cells to AZD5153 treatment."}, "[3]": {"system": "THP-1 (AML MLL-AF9) cells", "assay": "BRD4 inhibitor dose response +/- WDR77 KO", "procedure": "JQ1 dose response+/−WDR77 KO. Octuplicate wells. Repeated with two sgRNAs.\nThe experiments were performed in octuplicate wells and repeated with two sgRNAs. FIGS. 35 and 36 show AZD5153 dose response curves in THP-1 and MV4-11 cells that are +/−WDR77 knock-out."}, "Meljuso cells": {"system": "Meljuso cells", "assay": "Apoptosis Big Papi library screen with inhibitors of anti-apoptotic proteins", "format": "cell-based, human", "settings": "250 nM, on/off dosing", "procedure": "(e) In Meljuso cells with single gene knockouts, comparison of resistance and sensitization phenotypes for two small molecules. The fold change values are calculated relative to the no drug arm for targeting sgRNAs paired with the 6T and HPRT intron controls. Genes of interest are colored and labeled. (f) Buffering interactions in Meljuso cells for combinations of multidomain apoptotic genes with BH3-only sensitizer genes in different growth conditions. Data from the three small molecules were combined for the final column. Heat map scale is the same as in panel c. (g) Buffering interactions in Meljuso cells for combinations of pro-apoptotic genes and caspase genes in standard growth conditions and the combined data from the three small molecules. Heat map scale is the same as in panel c.\nApplicants next analyzed Meljuso cells screened with inhibitors, first examining single gene effects.\nTo examine combinatorial phenotypes, Applicants combined data across the three BCL2L1 inhibitors, to minimize effects due to molecule-specific mechanism of action.\nInfections were conducted as described above for the SynLet library. […] All small molecules were screened at 250 nM with an on/off dosing schedule, in which cells were treated with small-molecule for 4 days and then grown in standard growth conditions for 3 days, and then this cycle was repeated for an additional week. All arms were collected at 21 days post-infection. For Meljuso cells, all three replicates were prepared and sequenced separately."}},
  "data": [
    {"smiles": "Nc1nc2nc[nH]c2c(=S)[nH]1", "note": "[6-thioguanine]", "values": [
      {"measurement": "effect of knockout of NUDTS on response to the drug", "setting": "293T cells", "value": "resistance"}
    ]},
    {"smiles": "Cc1c(-c2ccc(N3CCc4cccc(C(=O)Nc5nc6ccccc6s5)c4C3)nc2C(=O)O)cnn1CC12CC3CC(CC(C3)C1)C2", "note": "[A-1331852]", "values": [
      {"measurement": "synergy of small molecule with sgRNAs targeting MCL1 (cell viability)", "setting": "[1]", "value": "strongly synergized"}
    ]},
    {"smiles": "COc1nnc2ccc(N3CCC(c4ccc(OCCN5CCN(C)C(=O)[C@H]5C)cc4)CC3)nn12", "note": "[AZD5153]", "values": [
      {"measurement": "effect of WDR77 KO on response to treatment", "setting": "[2]", "value": "sensitizes"},
      {"measurement": "effect of WDR77 KO on response to treatment", "setting": "[3]", "value": "sensitizes"}
    ]},
    {"smiles": "Cc1sc2c(c1C)C(c1ccc(Cl)cc1)=N[C@@H](CC(=O)OC(C)(C)C)c1nnc(C)n1-2", "note": "[JQ1]", "values": [
      {"measurement": "effect of WDR77 KO on response to treatment", "setting": "[3]", "value": "sensitizes"}
    ]},
    {"smiles": "Cc1c(-c2c(-c3ccc(F)o3)sc3ncnc(O[C@H](Cc4ccccc4OCc4ccnn4CC(F)(F)F)C(=O)O)c23)ccc(OCCN2CCN(C)CC2)c1Cl", "note": "[S63845]", "values": [
      {"measurement": "synergy of small molecule with sgRNAs targeting BCL2L1 (cell viability)", "setting": "[1]; sgRNAs targeting BCL2L1, dosed from 1 nM to 1 μM", "value": "synergized specifically"},
      {"measurement": "synergy with BCL2L1 knockout (single gene effect in screen)", "setting": "Meljuso cells; relative to no drug arm", "value": "synergized"}
    ]},
    {"smiles": "CC1(C)CCC(c2ccc(Cl)cc2)=C(CN2CCN(c3ccc(C(=O)NS(=O)(=O)c4ccc(N[C@H](CCN5CCOCC5)CSc5ccccc5)c(S(=O)(=O)C(F)(F)F)c4)cc3)CC2)C1", "note": "[navitoclax]", "values": [
      {"measurement": "synergy of small molecule with sgRNAs targeting MCL1 (cell viability)", "setting": "[1]", "value": "strongly synergized"},
      {"measurement": "effect of knockout of BAX and PMAIP1 (Noxa) on response to the small molecule", "setting": "Meljuso cells", "value": "resistance"},
      {"measurement": "effect of knockout of BCL2A1 on response to the small molecule", "setting": "Meljuso cells", "value": "sensitized"},
      {"measurement": "synergy with MCL1 knockout (single gene effect in screen)", "setting": "Meljuso cells; relative to no drug arm", "value": "synergized"}
    ]}
  ]
}
